Values joined by “and” are separate entries in the source; they are usually repeats but may differ in a detail not shown here. Equal entries are not always repeated.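 Step 1: Grow cells in 96-well plates. Step 2: Expose to compound for 48 hours at 5 concentrations. Step 3: Interpolate endpoints linearly; if unreached, use highest concentration. At the GI50, growth is halved. Definition used: TGI = concentration required for complete inhibition of growth.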

The subject of the first test is OVCAR-3 ovarian. The experiment in a line: NCI anticancer screen, dose series, 48 h.
For the compound `CCn1c(=O)c2c(=O)c3c4c(oc3oc2c2ccccc21)C(=O)c1ccccc1C4=O`, the GI50 was 0.627 µM and the TGI came out at 4.51 µM.

Take `NC(=O)c1cc(S(=O)(=O)Nc2nnc(-c3ccccc3)c(-c3ccccc3)n2)c(SCc2ccccc2)cc1Cl`: the GI50 was more than 100 µM and the TGI is more than 100 µM.

Regarding `Cc1cc(C)c(/C=C2\C(=O)Nc3ccc(NC(=O)CCCCCCC(=O)NO)cc32)[nH]1`, the GI50 is 0.882 µM and the TGI is more than 78.2 µM.

Turning to `C1=C\COCc2cc(ccc2OCCN2CCCC2)Nc2nccc(n2)-c2cccc(c2)COC/1`, the GI50 is 2.01 µM and the TGI is 5.57 µM.

In the case of `COc1ccc(-c2coc3c4c(ccc3c2=O)OCO4)cc1OC`, the TGI is more than 100 µM.

For the compound `CC(C)(S)C(N)C(=O)O` (stereo not drawn), the GI50 is 1250 µM; the TGI was 3990 µM and > 100 µM.

Turning to `O=C1c2ccccc2-c2c1c1ccccc1c(=O)n2CCCCl`, the GI50 is 3.23 µM and the TGI worked out at 8.18 µM.

With `CN1C(=O)/C(=C/c2c(Cl)n(C)c3ccccc23)c2ccccc21`, the GI50 is 2.05 µM and 1.45 µM; the TGI is 5.17 µM and 2.76 µM.

Regarding `COc1cc2c3c(n(CCCOC(=O)C(F)(F)F)c(=O)c2cc1OC)-c1cc2c(cc1C3=O)OCO2`, the GI50 was 0.0425 µM and the TGI was found to be 0.306 µM.

Regarding `COc1cc2c(c(OC)c1OC)-c1ncc3cc4c(cc3c1C2)OCO4`, the GI50 is 15.5 µM and the TGI is 38.1 µM.

On to `CCOC(=O)/C=C(/C)Sc1cc(O)c2ccccc2c1O`, for which the GI50 is 2 µM and the TGI turned out to be 5.1 µM.

`COc1ccc(-n2c(C)cc(-c3ccccc3)c2C)cc1`: the GI50 was 2.61 µM and the TGI came out at 10.7 µM.

Regarding `O=C(CSC1CCc2ccccc21)N/N=C/c1ccccc1O` (stereo not drawn), the GI50 was 4.67 µM and the TGI turned out to be 48.9 µM.

Compound `C=C1C(=O)OC2CC(C)C3(O)CCC(=O)C3(C)CC12` (stereo not drawn) gave a TGI of 46.5 µM.

With `O=C(Nc1ccc(F)cc1)c1cc(S(=O)(=O)Nc2nc3ccccc3o2)c(SCc2ccccc2)cc1Cl`, the GI50 is 14.8 µM and the TGI is 28.1 µM.

In the case of `CN(CCO)c1ccc(N2Cc3ccccc3OC3=C2C(=O)c2c(O)ccc(O)c2C3=O)cn1`, the GI50 is 0.111 µM and the TGI stood at 0.276 µM.

On to `O=C1NC(=O)C(c2cccc([N+](=O)[O-])c2)=C1Nc1cc(Cl)c(O)c(Cl)c1`, for which the GI50 is more than 17.9 µM and the TGI was more than 25 µM.

Consider `NC(=O)OCCn1cc(-c2nc(-c3c[nH]c4ncccc34)cs2)c2ccccc21`, for which the GI50 is 1.27 µM and the TGI was found to be 3.83 µM.

For the compound `NCCSc1nc(-c2ccccc2)c(-c2ccccc2)o1`, the TGI was more than 100 µM.

The subject of the next test is UACC-257 melanoma. The experiment in a line: NCI anticancer screen, dose series, 48 h.
In the case of `CCn1c(=O)c2c(=O)c3c4c(oc3oc2c2ccccc21)C(=O)c1ccccc1C4=O`, the GI50 is more than 100 µM and the TGI was more than 100 µM.

For `NC(=O)c1cc(S(=O)(=O)Nc2nnc(-c3ccccc3)c(-c3ccccc3)n2)c(SCc2ccccc2)cc1Cl`, the GI50 was more than 48.2 µM and the TGI is more than 89.9 µM.

On to `Cc1cc(C)c(/C=C2\C(=O)Nc3ccc(NC(=O)CCCCCCC(=O)NO)cc32)[nH]1`, for which the GI50 was 0.418 µM and the TGI is more than 100 µM.

For `C1=C\COCc2cc(ccc2OCCN2CCCC2)Nc2nccc(n2)-c2cccc(c2)COC/1`, the GI50 is 2.53 µM and the TGI was found to be 5.66 µM.

`COc1ccc(-c2coc3c4c(ccc3c2=O)OCO4)cc1OC` yielded a TGI of more than 100 µM.

For the compound `CC(C)(S)C(N)C(=O)O` (stereo not drawn), the GI50 is 4860 µM and the TGI was more than 5000 µM.

With `O=C1c2ccccc2-c2c1c1ccccc1c(=O)n2CCCCl`, the GI50 is 12.6 µM and the TGI came to 76.5 µM.

As to `CN1C(=O)/C(=C/c2c(Cl)n(C)c3ccccc23)c2ccccc21`, the GI50 is 4.53 µM.

`Cc1nc(-[n+]2nc(-c3ccncc3)nn2-c2ccccc2)sc1C` showed a TGI of more than 100 µM.

With `CCOC(=O)/C=C(/C)Sc1cc(O)c2ccccc2c1O`, the GI50 is 1.8 µM and the TGI stood at 3.87 µM.

In the case of `COc1ccc(-n2c(C)cc(-c3ccccc3)c2C)cc1`, the GI50 is 2.33 µM and the TGI came out at 7.51 µM.

In turn, `CCOc1ccncc1[N+](=O)[O-]` had a TGI of more than 100 µM.

In turn, `C=C1C(=O)OC2CC(C)C3(O)CCC(=O)C3(C)CC12` (stereo not drawn) gave a TGI of more than 100 µM.

With `O=C(Nc1ccc(F)cc1)c1cc(S(=O)(=O)Nc2nc3ccccc3o2)c(SCc2ccccc2)cc1Cl`, the GI50 was 13.5 µM and the TGI came out at 28.4 µM.

In the case of `CN(CCO)c1ccc(N2Cc3ccccc3OC3=C2C(=O)c2c(O)ccc(O)c2C3=O)cn1`, the GI50 was 0.277 µM and the TGI came to 0.791 µM.

As to `NC(=O)OCCn1cc(-c2nc(-c3c[nH]c4ncccc34)cs2)c2ccccc21`, the GI50 is 2.08 µM and the TGI turned out to be 7.88 µM.

`NCCSc1nc(-c2ccccc2)c(-c2ccccc2)o1` gave a TGI of more than 100 µM.

The next test deals with SR leukemia. Put plainly: NCI anticancer screen, dose series, 48 h.
On to `NC(=O)c1cc(S(=O)(=O)Nc2nnc(-c3ccccc3)c(-c3ccccc3)n2)c(SCc2ccccc2)cc1Cl`, for which the GI50 is 42.2 µM and the TGI is more than 70.9 µM.

With `Cc1cc(C)c(/C=C2\C(=O)Nc3ccc(NC(=O)CCCCCCC(=O)NO)cc32)[nH]1`, the GI50 is 0.416 µM and the TGI is more than 100 µM.

On to `C1=C\COCc2cc(ccc2OCCN2CCCC2)Nc2nccc(n2)-c2cccc(c2)COC/1`, for which the GI50 is 0.306 µM and the TGI is 1.62 µM.

With `COc1ccc(-c2coc3c4c(ccc3c2=O)OCO4)cc1OC`, the TGI is more than 100 µM.

Regarding `CC(C)(S)C(N)C(=O)O` (stereo not drawn), the GI50 is 1840 µM and the TGI is more than 5000 µM.

In the case of `Cc1nc(-[n+]2nc(-c3ccncc3)nn2-c2ccccc2)sc1C`, the TGI was more than 100 µM.

Turning to `CCOC(=O)/C=C(/C)Sc1cc(O)c2ccccc2c1O`, the GI50 is 1.3 µM and the TGI is 4.16 µM.

With `COc1ccc(-n2c(C)cc(-c3ccccc3)c2C)cc1`, the GI50 was 1.3 µM and the TGI turned out to be 5.75 µM.

With `O=C(CSC1CCc2ccccc21)N/N=C/c1ccccc1O` (stereo not drawn), the GI50 is 4.03 µM and the TGI was 34.4 µM.

On to `CCOc1ccncc1[N+](=O)[O-]`, for which the TGI is more than 100 µM.

Regarding `C=C1C(=O)OC2CC(C)C3(O)CCC(=O)C3(C)CC12` (stereo not drawn), the TGI came to 57 µM.

With `COC(=O)[C@@H](C)C[C@H](Cc1ccccc1)NC(=O)c1csc([C@@H](C[C@H](C(C)C)N(C)C(=O)[C@@H](NC(=O)[C@H]2CCCCN2C)C2CCCCC2)OC(C)=O)n1`, the GI50 is 0.000274 µM and 0.0025 µM; the TGI is 2.9 µM.

For `NC(=O)OCCn1cc(-c2nc(-c3c[nH]c4ncccc34)cs2)c2ccccc21`, the GI50 is 1.08 µM and the TGI came to 7.05 µM.

Compound `NCCSc1nc(-c2ccccc2)c(-c2ccccc2)o1` showed a TGI of more than 100 µM.

For a further test, the system named is MOLT-4 leukemia. The experiment in a line: NCI anticancer screen, dose series, 48 h.
`CCn1c(=O)c2c(=O)c3c4c(oc3oc2c2ccccc21)C(=O)c1ccccc1C4=O`: the GI50 was 0.366 µM and the TGI worked out at 2.12 µM.

Regarding `NC(=O)c1cc(S(=O)(=O)Nc2nnc(-c3ccccc3)c(-c3ccccc3)n2)c(SCc2ccccc2)cc1Cl`, the GI50 was 38.2 µM and the TGI is more than 70.1 µM.

Regarding `Cc1cc(C)c(/C=C2\C(=O)Nc3ccc(NC(=O)CCCCCCC(=O)NO)cc32)[nH]1`, the GI50 was 0.43 µM and the TGI was found to be 35.3 µM.

With `C1=C\COCc2cc(ccc2OCCN2CCCC2)Nc2nccc(n2)-c2cccc(c2)COC/1`, the GI50 was 1.33 µM and the TGI was determined as 4.9 µM.

For the compound `COc1ccc(-c2coc3c4c(ccc3c2=O)OCO4)cc1OC`, the TGI is more than 100 µM.

In the case of `CC(C)(S)C(N)C(=O)O` (stereo not drawn), the GI50 is 3040 µM and the TGI is more than 5000 µM.

On to `O=C1c2ccccc2-c2c1c1ccccc1c(=O)n2CCCCl`, for which the GI50 was 1.61 µM and the TGI came out at 4.38 µM.

In the case of `CN1C(=O)/C(=C/c2c(Cl)n(C)c3ccccc23)c2ccccc21`, the GI50 is 1.88 µM and 0.245 µM; the TGI worked out at 0.756 µM.

`Cc1nc(-[n+]2nc(-c3ccncc3)nn2-c2ccccc2)sc1C`: the TGI is more than 100 µM.

As to `CCOC(=O)/C=C(/C)Sc1cc(O)c2ccccc2c1O`, the GI50 was 2.33 µM and the TGI stood at 7.08 µM.

Take `O=C(CSC1CCc2ccccc21)N/N=C/c1ccccc1O` (stereo not drawn): the GI50 was 3.79 µM and the TGI amounted to 56.7 µM.

`CCOc1ccncc1[N+](=O)[O-]` had a TGI of more than 100 µM.

Consider `C=C1C(=O)OC2CC(C)C3(O)CCC(=O)C3(C)CC12` (stereo not drawn), for which the TGI stood at 58 µM.

Take `O=C(Nc1ccc(F)cc1)c1cc(S(=O)(=O)Nc2nc3ccccc3o2)c(SCc2ccccc2)cc1Cl`: the GI50 was 19.5 µM and the TGI amounted to 52.4 µM.

Regarding `CN(CCO)c1ccc(N2Cc3ccccc3OC3=C2C(=O)c2c(O)ccc(O)c2C3=O)cn1`, the GI50 is 0.135 µM and the TGI was 1.19 µM.

Consider `O=C1NC(=O)C(c2cccc([N+](=O)[O-])c2)=C1Nc1cc(Cl)c(O)c(Cl)c1`, for which the GI50 is more than 25 µM and the TGI was more than 25 µM.

Consider `COC(=O)[C@@H](C)C[C@H](Cc1ccccc1)NC(=O)c1csc([C@@H](C[C@H](C(C)C)N(C)C(=O)[C@@H](NC(=O)[C@H]2CCCCN2C)C2CCCCC2)OC(C)=O)n1`, for which the GI50 was 0.00512 µM and 0.0025 µM; the TGI is 4.87 µM.

Take `NC(=O)OCCn1cc(-c2nc(-c3c[nH]c4ncccc34)cs2)c2ccccc21`: the GI50 was 2.19 µM and the TGI amounted to 8.61 µM.

A further test deals with KM12 colon. The experiment in a line: NCI anticancer screen, dose series, 48 h.
`CCn1c(=O)c2c(=O)c3c4c(oc3oc2c2ccccc21)C(=O)c1ccccc1C4=O`: the GI50 was more than 100 µM and the TGI is more than 100 µM.

Regarding `NC(=O)c1cc(S(=O)(=O)Nc2nnc(-c3ccccc3)c(-c3ccccc3)n2)c(SCc2ccccc2)cc1Cl`, the GI50 was more than 62.6 µM and the TGI was more than 100 µM.

For `Cc1cc(C)c(/C=C2\C(=O)Nc3ccc(NC(=O)CCCCCCC(=O)NO)cc32)[nH]1`, the GI50 is 7.2 µM and the TGI is more than 100 µM.

`C1=C\COCc2cc(ccc2OCCN2CCCC2)Nc2nccc(n2)-c2cccc(c2)COC/1`: the GI50 is 0.348 µM and the TGI came out at 3.74 µM.

For the compound `COc1ccc(-c2coc3c4c(ccc3c2=O)OCO4)cc1OC`, the TGI was more than 100 µM.

On to `CC(C)(S)C(N)C(=O)O` (stereo not drawn), for which the GI50 is 1470 µM; the TGI was 4710 µM and > 100 µM.

With `O=C1c2ccccc2-c2c1c1ccccc1c(=O)n2CCCCl`, the GI50 is 34 µM and the TGI was more than 100 µM.

In the case of `CN1C(=O)/C(=C/c2c(Cl)n(C)c3ccccc23)c2ccccc21`, the GI50 is 3.34 µM and 1.31 µM; the TGI amounted to 3.49 µM.
